# In patent US20040038950A1, “Pharmaceutical composition for treating IL-1 related diseases or disorders” (priority 2002, published 2004):
# Tests used:
# [1] = tested on: (IL-1β)-induced iNOS mRNA; assay: (IL-1β)-induced iNOS gene expression in chondrocytes; assay type: cell-based, human; settings: 10, 50, 100 μM with IL-1β, 72 hr
# Method: Sixteen hours prior to a treatment, the complete culture medium was replaced with a serum-free medium. Chondrocyte alginate bead cultures were then treated with IL-1β ([…], (Calbiochem) and DHEA (0, 10, 50 or 100 μM) for 3 days.
# (§1) Total RNA from chondrocytes was extracted using RNeasy Mini Kit (QIAGEN). Reverse transcription from 1 μg of total RNA was conducted using First Strand cDNA Synthesis Kit (MBI Fermentas) according to manufacturer's recommendation with random hexamers. The resulting cDNA was then amplified by polymerase chain reaction using AccuPower PCR Premix (Bioneer, Korea) in a final volume of 20 μl using three thermocycler temperatures (30 sec at […], 30 sec at 60° C., and 30 sec at […]). All reactions were determined to be in the linear range of amplification with the cycle number ranging from 14 to 30. The PCR products were analyzed by separation on a 2% agarose gel followed by ethidium bromide staining. Following electrophoresis, photographs were taken and analyzed using a densitometric program (TINA; Raytest Isotopenmeβgerate, Germany). Integrated density values for the genes in question were then normalized to the glyceraldehyde-3-phosphate dehydrogenase (GAPDH) values for a semiquantitative assessment. After normalizing with respect to GAPDH, percentage increase or decrease was determined. Each experiment was repeated at least three times. […]
# [2] = tested on: TIMP-1 mRNA; assay: Osteoarthritic rabbit model (ACLT), intraarticular injection, RT-PCR of TIMP-1; assay type: in vivo; settings: rabbit ACLT knee, intraarticular once a week for 5 weeks
# Method: (§2) Mature New Zealand White rabbits underwent bilateral anterior cruciate ligament transection (ACLT). ACLT was performed using a medial arthrotomy method. Postoperatively the animals were permitted cage (60 cm×60 cm×40 cm) activity without immobilization. The right knees received via intraartiticular injection DHEA, DHEA-pyruvate or DHEA+HA, 4 weeks after ACLT and once a week for 5 weeks. The left knees received 0.3 ml of intraarticular injection with control solution (carrier solution). After 9 weeks from ACLT, the animas were sacrificed.
# (§3) Synovium (entire tissue) around the infrapatellar fat pads and cartilage tissue from the femoral condyle and the tibial plateau were harvested. The subsequent experimental procedure was the same as described in Test Example IV.
# [3] = tested on: type II collagen mRNA; assay: RT-PCR of type II collagen mRNA in chondrocytes; assay type: cell-based, human; settings: for type II collagen gene up-regulation, enhancement: 72 hours
# Method: (§4) Chondrocytes were isolated from the knee joint of patient undergoing a knee replacement due to osteoarthritis. Cartilage was digested with 0.2% protease Type XIV (Sigma) for 1 hour, followed by 3-hour incubation with 0.2% collagenase Type IA (Sigma) at 37° C. Following the incubation, the undigested cartilage fragments were removed using a 70 μm Nylon sieve. Chondrocytes were washed with DPBS and maintained in monolayer culture for 7 days in Dulbecco's modified Eagle's medium (DMEM; Life Technologies Inc.) which contained 10% fetal bovine serum (FBS; Life Technologies), 100 units/ml penicillin-streptomycin (Life Technologies) and 25 μg/ml L-ascorbic acid (Sigma). All experiments were performed with primary or first passage cells. The preparation of chondrocytes in alginate beads was carried out with 4×10^6 cells per 1 ml of alginate. Alginate cultures were maintained for 7 days at 37° C., 5% CO2 and 95% humidity and incubated with various concentrations of DHEA (0, 10, 50 or 100 μM) for a varing period of time. DHEA was purchased from Sigma and used after dissolving either in ethanol or dimethyl sulfoxide (DMSO). After a desired incubation period, cells were harvested by solubilizing the alginate beads in citrate buffer (55 mM sodium citrate, 0.15 M NaCl, pH 7.0) for 10 min at 37° C. and by centrifugation (300 g, 5 min).
# Total RNA from chondrocytes was extracted using RNeasy Mini Kit (QIAGEN). Reverse transcription from 1 μg of total RNA was conducted using First Strand cDNA Synthesis Kit (MBI Fermentas) according to manufacturer's recommendation with random hexamers. […] All reactions were determined to be in the linear range of amplification with the cycle number ranging from 14 to 30. The PCR products were analyzed by separation on a 2% agarose gel followed by ethidium bromide staining. Following electrophoresis, photographs were taken and analyzed using a densitometric program (TINA; Raytest Isotopenmeβgerate, Germany). […] After normalizing with respect to GAPDH, percentage increase or decrease was determined. […]
# [4] = tested on: human chondrocyte; assay: GAG assay (35SO4-labeled proteoglycan synthesis) in chondrocyte alginate culture; assay type: cell-based; settings: DHEA present in chondrocyte cultures, same time period
# Method: Chondrocytes were isolated from the knee joint of patient undergoing a knee replacement due to osteoarthritis. Cartilage was digested with 0.2% protease Type XIV (Sigma) for 1 hour, followed by 3-hour incubation with 0.2% collagenase Type IA (Sigma) at 37° C. Following the incubation, the undigested cartilage fragments were removed using a 70 μm Nylon sieve. Chondrocytes were washed with DPBS and maintained in monolayer culture for 7 days in Dulbecco's modified Eagle's medium (DMEM; Life Technologies Inc.) which contained 10% fetal bovine serum (FBS; Life Technologies), 100 units/ml penicillin-streptomycin (Life Technologies) and 25 μg/ml L-ascorbic acid (Sigma). All experiments were performed with primary or first passage cells. The preparation of chondrocytes in alginate beads was carried out with 4×10^6 cells per 1 ml of alginate. […]
# For cell proliferation, [^3H]thymidine assay was performed on a 96-well plate (Nunc) with one alginate bead per well. […] After collecting the cells using a cell harvester (Wallac), [^3H]thymidine uptake was quantitated by measuring β emission on a β-counter (Wallac). […] The ^35SO4-labeled proteoglycan content was measured by a liquid scintillation counter (Wallac). The total cellular DNA was determined by Indole assay.
# [5] = tested on: TIMP-1 mRNA; assay: RT-PCR of TIMP-1 mRNA in chondrocytes; assay type: cell-based, human
# Method: as §4, §1
# [6] = tested on: type II collagen mRNA; assay: Osteoarthritic rabbit model (ACLT), intraarticular injection, RT-PCR of type II collagen; assay type: in vivo; settings: rabbit ACLT knee, intraarticular once a week for 5 weeks
# Method: as §2, §3
compound,measurement,setting,value
"C[C@]12CC[C@H](O)CC1=CC[C@@H]1[C@@H]2CC[C@]2(C)C(=O)CC[C@@H]12 [DHEA, dehyroepiandrosterone]",(IL-1β)-induced up-regulation of iNOS mRNA,[1],suppressed
same,expression of TIMP-1,[2],increased
same,"type II collagen gene up-regulation, enhancement",[3]; 50 μM,132%
same,"type II collagen gene up-regulation, enhancement",[3]; 100 μM,146%
same,Emax at 100 µM,"[3]; Homo sapiens, Chondrocyte, 100 μM, after 48 hr, read-out: type II collagen mRNA level, maximal stimulation",276%
same,rate of proteoglycan synthesis,[4],remained unchanged
same,"TIMP-1 mRNA expression, maximum rate of enhancement","[5]; 50 μM, 72 hours",120%
same,"TIMP-1 mRNA expression, up-regulation","[5]; 100 μM, after 72 hr",129%
same,TIMP-1 mRNA expression,"[5]; 100 μM, up to 48 hr",unaffected
same,TIMP-1 mRNA enhancement effect,[5]; DHEA concentration above 100 μM,diminished
same,expression of type II collagen,[6],increased
